Test: Stability of aqueous solution on standing under ambient conditions (loss of inhibitory activity)
Assay type: physicochemical
Conditions: 1 mg per ml, pH of about 8, standing for as little as 30 minutes

activity of fresh aqueous solution upon standing: substantially less active
SMILES: C[C@H](CS)C(=O)N1CCC[C@H]1C(=O)O [SQ14225, D-3-mercapto-2-methylpropanoyl-L-proline]

Source: patent publication EP0038117A1, “Methods for preparing anti-hypertensive agents” (UNIVERSITY OF MIAMI, priority 1980, dated 1981)
